Test results reported in patent US5859019A, “Methods for protecting against cardiac ischemia by administering adenosine A2a receptor antagonists” (priority 1997, dated 1999).

Tests used:
Format in all cases: cell-based
[1] = system: ventricular cells cultured from chick embryos; assay: 45Ca uptake in cultured ventricular cells; details: for Calcium influx into the cultured cells: isoproterenol 0.3 μM, forskolin 1 μM, BayK 8644 0.1 μM, data not shown
Protocol: (§1) Determination of ^45 Ca uptake was made according to a modification of previously described method (20). Cultures were incubated with L-(3, 4, 5-^3 H, N)-leucine (152.2 Ci/mmol) for a 24 hour prior to ^45 Ca uptake. [^3 H] leucine incorporated into the cellular protein allowed normalization of ^45 Ca content to mg cell protein. After incubation with ^45 Ca-containing medium, cells were then washed free of ^45 Ca and solubilized for 2 hours with 1% sodium dodecyl sulfate and 10 mM sodium borate and the levels of ^3 H and ^45 Ca were determined. For all data comparing the effect of different agents on ^45 Ca uptake, one-way ANOVA analysis followed by group comparison with t-test was carried out at each time point of the ^45 Ca uptake. Cyclic AMP level was determined according to a previously described radioimmunoassay (27).

[2] = system: ventricular cells cultured from chick embryos; assay: Cyclic AMP level in cultured ventricular cells (radioimmunoassay); details: Gallus gallus; isoproterenol 0.3 μM, forskolin 1 μM; n=6, ±S.E.; read-out: % increase in cAMP level
Protocol: as §1

[3] = system: ventricular cells cultured from chick embryos; assay: Hypoxia-induced injury / preconditioning of cultured ventricular cells (% cells killed, CK released); details: for Ability to replace preconditioning hypoxia (protection against injury by ninety-minute hypoxia; % cells killed, CK released): agent given for 5 min in place of preconditioning hypoxia, before 90-min hypoxia, adenosine 10 μM, R-PIA 10 μM; for Ability to replace preconditioning hypoxia (protection against injury by ninety-minute hypoxia; % cells killed, CK released) / Effect on protection by preconditioning hypoxia (% cells killed, CK released): CGS21680 1 μM; for Effect on protection by preconditioning hypoxia (% cells killed, CK released): agent present during five-minute preconditioning hypoxia, CSC 1 μM, 8-SPT 100 μM, isoproterenol 0.3 μM, forskolin 1 μM, BayK 8644 0.1 μM
Protocol: Ventricular cells were cultured from chick embryos 14 days in ovo, according to a previously described procedure (20, 27). Cells were plated at a density of 400,000 cells per ml and cultivated in a humidified 5% CO2 -95% air mixture at 37° C. […] For preconditioning studies, the medium was changed to a HEPES-buffered medium containing (mM) 139 NaCl, 4.7 KCl, 0.5 MgCl2, 0.9 CaCl2, 5 HEPES (N-2-hydroxyethylpiperazine-N'-2-ethanesulfonic acid) and 2% fetal bovine serum, pH=7.4, 37° C. before exposing cells to the various conditions at 37° C. Control cells were maintained in the HEPES-buffered media under room air. Hypoxia was produced by placing the cells in a hypoxic incubator (NuAire) where O2 was replaced by N2. The % O2 was monitored by both an oxygen Fyrite Gas Analyzer (Bacharach) and an oxygen analyzer (Model OX630, Engineered Systems & Designs). Preconditioning was induced by exposing the cells to five minutes of hypoxia, termed preconditioning hypoxia, prior to a second ninety-minute hypoxia. Cells not subjected to preconditioning were exposed to ninety minutes of hypoxia only (nonpreconditioned cells). The extracellular pH was similarly maintained at 7.4 by HEPES in both preconditioned and nonpreconditioned cells. Determination of basal level of cell injury was made after parallel incubation of control cells under normal % O2. For preconditioned and nonpreconditioned cells, determination of cell injury was made at the end of the ninety-minute hypoxic period.
The extent of hypoxia-induced injury to the ventricular cell was quantitatively determined by the percentages of cells killed and by the amount of creatine kinase (CK) released into the media. To quantitate the % cells killed, cells were exposed to a trypsin-EDTA Hanks' balanced salt solution for 10 minutes for detachment after the various treatment, followed by centrifugation (300 × g for 10 minutes) and resuspension in culture media for counting in a hemocytometer. Only live cells sedimented and the cells counted represented those that survived (29). None of the sedimented cells subsequently counted included trypan blue. […] There was no protein or CK in the culture media following a second 300 × g centrifugation of resuspended cells previously treated with trypsin-EDTA. […] In contrast, the trypsin-EDTA media from cells exposed to 90 minutes of hypoxia contained substantial amount of proteins (0.15±0.03 mg, n=9) and CK activity (16±3 unit/mg protein, n=8). […] Because trypsin may cause further proteolysis of proteins and CK, the amount of protein and CK retained by the damaged cells in the trypsin-EDTA media may not accurately reflect those associated with the damaged cells. In support of the notion that exposure to 90 minutes of hypoxia caused significant cell injury and loss of membrane integrity, there was also marked release of LDH (hypoxia-exposed cells, 35.5±2.7, unit/mg, n=8, ±S.E. vs. control cells, 6.1±0.4 unit/mg, n=8) and proteins (hypoxia-exposed cells, 0.15±0.03 mg, n=8 vs. control cells, 0.034±0.01 mg, n=8) from the cells incubated under prolonged hypoxia. Thus, the cell viability assay separated out the hypoxia-damaged from the control normoxia-exposed cells. […] The amount of CK was measured as enzyme activity (unit/mg), and increases in CK activity above the control level were determined. The percentage of cells killed was calculated as the number of cells obtained from the control group (representing cells not subjected to any hypoxia or drug treatment) minus the number of cells from the treatment group divided by number of cells in control group multiplied by 100%.
To investigate the role of adenosine in mediating the preconditioning effect, the ventricular cells, instead of being exposed to the brief hypoxia, were incubated with adenosine (10 μM) for 5 minutes prior to the ninety minute hypoxia. In adenosine-treated cells, media were replaced with adenosine-free media for ten minutes prior to a ninety-minute hypoxic exposure. […]

Compound | Calcium influx into the cultured cells [1] | activation at 0.3 µM [2] | Ability to replace preconditioning hypoxia (protection against injury by ninety-minute hypoxia; % cells killed, CK released) [3] | Effect on protection by preconditioning hypoxia (% cells killed, CK released) [3] | activation at 1 µM [2] | Effect on increase in calcium uptake by isoproterenol, forskolin and BayK 8644 ([1]; nifedipine) | Effect on attenuation of preconditioning by isoproterenol, forskolin and BayK 8644 ([3]; nifedipine 1 μM during preconditioning hypoxia) | Effect on CGS21680-induced attenuation of preconditioning ([3]; nifedipine 1 μM with CGS21680 during preconditioning hypoxia)
CC(C)NCC(O)c1ccc(O)c(O)c1 (stereo not drawn) [isoproterenol] | induced increased calcium influx | 228 ± 31% | Neither isoproterenol, forskolin nor BayK8644 had any effect on the level of protection | caused an increase in % cells killed and amount of CK released |  |  |  | 
C=C[C@@]1(C)CC(=O)[C@]2(O)[C@@]3(C)[C@@H](O)CCC(C)(C)[C@@H]3[C@H](O)[C@H](OC(C)=O)[C@@]2(C)O1 [forskolin] | induced increased calcium influx |  | Neither isoproterenol, forskolin nor BayK8644 had any effect on the level of protection | caused an increase in % cells killed and amount of CK released | 54.8 ± 9.7% |  |  | 
COC(=O)C1=C(C)NC(C)=C(C(=O)OC)C1c1ccccc1[N+](=O)[O-] [nifedipine] |  |  | did not simulate preconditioning |  |  | blocked the increase in calcium uptake | abolished | abolished the CGS21680-induced attenuation of cardioprotection
